One experiment deals with WT STING (Homo sapiens, UniProt Q86WV6, H232R). Kind of experiment: 293T WT STING standard reporter assay. Format: cell-based. The settings on record: 293T wtSTING-FL cells, ISRE firefly luciferase; no digitonin; 7 hours with compounds; 8-point curve. Also noted: host or cells: 293T (ATCC CRL-3216), stably transfected, with 4xISRE firefly luciferase reporter. The source says: Two complementary oligonucleotides of the sequence […] […] […] […] […] The oligonucleotides were mixed in equal molar amounts, hybridized, and cleaved by restriction endonucleases HindIII (cat. #. R0104S, NEB, Ipswich, USA) and BglII (cat. #R0144S, NEB, Ipswich, USA). Ultimately, they were ligated into plasmid pGL4.27 (cat. #E6651, Promega, Madison, USA) linearized with the same enzymes. As result the sequence with four ISRE sites was placed upstream of the minimum promoter of firefly luciferase reporter gene.
WT STING, sequence (Q86WV6 whole entry H232R): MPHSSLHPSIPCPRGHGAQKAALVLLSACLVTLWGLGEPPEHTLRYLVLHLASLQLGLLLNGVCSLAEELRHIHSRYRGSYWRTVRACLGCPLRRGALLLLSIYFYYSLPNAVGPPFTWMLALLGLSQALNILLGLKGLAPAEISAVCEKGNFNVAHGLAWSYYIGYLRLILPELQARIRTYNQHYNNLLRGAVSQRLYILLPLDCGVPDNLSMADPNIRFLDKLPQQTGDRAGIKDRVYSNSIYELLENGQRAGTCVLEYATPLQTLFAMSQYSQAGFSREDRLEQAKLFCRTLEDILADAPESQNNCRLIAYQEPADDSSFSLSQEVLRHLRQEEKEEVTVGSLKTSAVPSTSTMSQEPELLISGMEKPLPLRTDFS
After 5 minutes incubation at room temperature (RT), 250 μL of the mixture was added dropwise to the cells in one well. Cells were incubated 36 hours at 37° C. with 5% CO2, and then detached with 0.05% Trypsin and 0.22 g/L EDTA (both cat. #L0941, Biowest, Riverside, USA).
Transfected cells were seeded onto poly-D-lysine coated six well plates at density 50,000 cells per 1 cm^2 in DMEM medium with high glucose containing 10% heat inactivated FBS, 30 μg/mL blasticidin (cat. #ant-b1-05, InvivoGen, San Diego, USA), 0.06 mg/ml Penicillin G and 0.1 mg/ml Streptomycin Sulfate (both cat. #. L0018, Biowest, Riverside, USA). The medium was replenished every 3-4 days until visible colonies of cells resistant to blasticidin were formed.
Blasticidin resistant cells stably expressing WT STING were further transfected with […] plasmid following the same procedure as described above. […] Homogeneous culture of stably double transfected cells was prepared by limiting dilution of cells in 96 well plates and wells with cells were selected that originated from a single cell.
The medium was removed next day and three-fold serial dilutions of compounds in 100 μl medium were added to the cells. The plates with cells were incubated for 7 hours at 37° C. with 5% CO2. After 50 μl of the medium was removed, 30 μl of ONE-Glo™ Luciferase Assay System reagent (cat. #E6120, Promega, Madison, USA) was added to each well and luminescence was read on Synergy H1 (Biotek, Winooski, USA).

In experiment [1] the test system is peripheral blood mononuclear cells (PBMC). Kind of experiment: Peripheral blood mononuclear cell (PBMC) assay. The class given is cell-based. The note with it: 1 h with compounds, washed, 15 hour incubation, average of one to four donors. The method, then: Selected compounds were tested in an in vitro peripheral blood mononuclear cell (PBMC) assay. […] Serially diluted tested compounds were added to wells in 50 μl of cultivation medium and cell were incubated with compounds for 1 h at 37° C. with 5% CO2. Plates with cells were then spun 500 g for 5 minutes and medium was removed. Cells were washed twice with the cell culture medium by the use of centrifugation and gently resuspended in 100 μl medium without compounds. After 15 hour incubation at 37° C. with 5% CO2, the cell culture medium was collected and the levels of interferon-alpha (INF-α), interferon-gamma (INF-γ) and tumor necrosis factor-alpha (TNF-α) were determined with ProcartaPlex Assays (ThermoFisher, Waltham, USA) and MAGPIX System (Merck KGaA, Darmstadt, Germany). […] Values reported are an average of runs from one to four donors.

Where [2] appears, read: PBMC, interferon-alpha level, read-out: PBMC EC50 (μM) IFN-α.
[3] abbreviates: PBMC, interferon-gamma level, read-out: PBMC EC50 (μM) IFN-γ.
The mark [4] stands for this setting: PBMC, tumor necrosis factor-alpha level, read-out: PBMC EC50 (μM) TNF-α.
Where [5] appears, read: interferon-alpha level, read-out: PBMC EC50 (μM) IFN-α.
Setting [6] is: interferon-gamma level, read-out: PBMC EC50 (μM) IFN-γ.
Where [7] appears, read: tumor necrosis factor-alpha level, read-out: PBMC EC50 (μM) TNF-α.

Where two headings read alike, the source gives them in different places.

Turning to `CC(C)(C)C(=O)OCOP1(=O)OC[C@H]2C[C@@H](n3cnc4c(N)ncnc43)C(F)[C@H]2OP(=O)(OCOC(=O)C(C)(C)C)OC[C@H]2O[C@@H](n3cnc4c(N)ncnc43)[C@@H](F)C2O1` (single isomer, unassigned) [Compound 136b], the EC50 on WT STING is 0.06 µM.

In the case of `CC(C)(C)C(=O)OCOP1(=O)OC[C@H]2C[C@@H](n3cnc4c(N)ncnc43)C(F)[C@H]2OP(=O)(OCOC(=O)C(C)(C)C)OC[C@H]2O[C@@H](n3cnc4c(N)ncnc43)[C@@H](F)C2O1` (single isomer, unassigned) [Compound 136c], the EC50 at WT STING is 0.05 µM.

As for `CC(C)(C)C(=O)OCOP1(=O)OC[C@H]2C[C@@H](n3cnc4c(N)ncnc43)C(F)[C@H]2OP(=O)(OCOC(=O)C(C)(C)C)OC[C@H]2O[C@@H](n3cnc4c(N)ncnc43)[C@@H](F)C2O1` (single isomer, unassigned) [Compound 136d], the EC50 worked out at 0.9 µM in experiment [1] (setting [2]), 2.4 µM in experiment [1] (setting [3]), 0.8 µM in experiment [1] (setting [4]) and 0.01 µM at WT STING.

In the case of `CC(C)(C)C(=O)OCOP1(=O)OC[C@H]2O[C@@H](n3cnc4c(N)ncnc43)C(F)C2OP(=O)(OCOC(=O)C(C)(C)C)OC[C@H]2C[C@@H](n3cnc4c(N)ncnc43)CC2O1` (single isomer, unassigned) [Compound 137a], the EC50 on WT STING is 0.2 µM.

In the case of `CC(C)(C)C(=O)OCOP1(=O)OC[C@H]2O[C@@H](n3cnc4c(N)ncnc43)C(F)C2OP(=O)(OCOC(=O)C(C)(C)C)OC[C@H]2C[C@@H](n3cnc4c(N)ncnc43)CC2O1` (single isomer, unassigned) [Compound 137b], on WT STING, the EC50 was determined as 0.09 µM.

With `CC(C)(C)C(=O)OCOP1(=O)OC[C@H]2C[C@@H](n3cnc4c(N)ncnc43)C(F)C2OP(=O)(OCOC(=O)C(C)(C)C)OC[C@H]2C[C@@H](n3cnc4c(N)ncnc43)C(F)C2O1` (single isomer, unassigned) [Compound 138a], the EC50 came out at 1.5 µM in experiment [1] (setting [3]), 1.9 µM in experiment [1] (setting [4]), 3.2 µM in experiment [1] (setting [5]) and 0.07 µM at WT STING.

In the case of `CC(C)(C)C(=O)OCOP1(=O)OC[C@H]2C[C@@H](n3cnc4c(N)ncnc43)C(F)C2OP(=O)(OCOC(=O)C(C)(C)C)OC[C@H]2C[C@@H](n3cnc4c(N)ncnc43)C(F)C2O1` (single isomer, unassigned) [Compound 138b], the EC50 worked out at 1 µM in experiment [1] (setting [5]), 2.6 µM in experiment [1] (setting [6]), 1.3 µM in experiment [1] (setting [7]) and 0.02 µM at WT STING.

Turning to `CC(C)OC(=O)OCOP1(=O)OC[C@H]2O[C@@H](n3cnc4c(N)ncnc43)[C@H](F)[C@@H]2OP(=O)(OCOC(=O)OC(C)C)OC[C@H]2C[C@@H](n3cnc4c(N)ncnc43)[C@H](F)[C@@H]2O1` (single isomer, unassigned) [Compound 143a], the 50% effective concentration (EC50) on WT STING came to 0.1 µM.

As for `CCC(C)(C)C(=O)OCOP1(=O)OC[C@H]2O[C@@H](n3cnc4c(N)ncnc43)[C@H](F)[C@@H]2OP(=O)(OCOC(=O)C(C)(C)CC)OC[C@H]2C[C@@H](n3cnc4c(N)ncnc43)[C@H](F)[C@@H]2O1` (single isomer, unassigned) [Compound 144a], the EC50 at WT STING was determined as 0.02 µM.

In the case of `CCC(C)(C)C(=O)OCOP1(=O)OC[C@H]2O[C@@H](n3cnc4c(N)ncnc43)[C@H](F)[C@@H]2OP(=O)(OCOC(=O)C(C)(C)CC)OC[C@H]2C[C@@H](n3cnc4c(N)ncnc43)[C@H](F)[C@@H]2O1` (single isomer, unassigned) [Compound 144c], the EC50 is 0.004 µM in experiment [1] (setting [2]), 0.003 µM in experiment [1] (setting [3]), 0.002 µM in experiment [1] (setting [4]) and 0.001 µM on WT STING.

With `CC1(C(=O)OCOP2(=O)OC[C@H]3O[C@@H](n4cnc5c(N)ncnc54)[C@H](F)[C@@H]3OP(=O)(OCOC(=O)C3(C)CCCCC3)OC[C@H]3C[C@@H](n4cnc5c(N)ncnc54)[C@H](F)[C@@H]3O2)CCCCC1` (single isomer, unassigned) [Compound 145a], the EC50 at WT STING came out at 0.12 µM.

On to `CC1(C(=O)OCOP2(=O)OC[C@H]3O[C@@H](n4cnc5c(N)ncnc54)[C@H](F)[C@@H]3OP(=O)(OCOC(=O)C3(C)CCCCC3)OC[C@H]3C[C@@H](n4cnc5c(N)ncnc54)[C@H](F)[C@@H]3O2)CCCCC1` (single isomer, unassigned) [Compound 145b], for which the EC50 in experiment [1] (setting [2]) worked out at 0.007 µM; in experiment [1] (setting [3]), 0.002 µM; in experiment [1] (setting [4]), 0.006 µM; at WT STING, 0.001 µM.

`CCCCCCCC(=O)OCOP1(=O)OC[C@H]2O[C@@H](n3cnc4c(N)ncnc43)[C@H](F)[C@@H]2OP(=O)(OCOC(=O)CCCCCCC)OC[C@H]2C[C@@H](n3cnc4c(N)ncnc43)[C@H](F)[C@@H]2O1` (single isomer, unassigned) [Compound 146a]: the EC50 in experiment [1] (setting [2]) came to 0.04 µM; at WT STING it was 0.0001 µM.

As for `CCCCCCCC(=O)OCOP1(=O)OC[C@H]2O[C@@H](n3cnc4c(N)ncnc43)[C@H](F)[C@@H]2OP(=O)(OCOC(=O)CCCCCCC)OC[C@H]2C[C@@H](n3cnc4c(N)ncnc43)[C@H](F)[C@@H]2O1` (single isomer, unassigned) [Compound 146b], the EC50 in experiment [1] (setting [5]) was 0.02 µM; in experiment [1] (setting [6]) it was 0.01 µM; in experiment [1] (setting [7]), 0.01 µM; on WT STING it was 0.0003 µM.

As for `CCCCCCCC(=O)OCOP1(=O)OC[C@H]2O[C@@H](n3cnc4c(N)ncnc43)[C@H](F)[C@@H]2OP(=O)(OCOC(=O)CCCCCCC)OC[C@H]2C[C@@H](n3cnc4c(N)ncnc43)[C@H](F)[C@@H]2O1` (single isomer, unassigned) [Compound 146c], the EC50 was 0.02 µM in experiment [1] (setting [5]), 0.02 µM in experiment [1] (setting [6]), 0.01 µM in experiment [1] (setting [7]) and 0.001 µM on WT STING.

In the case of `CC(C)(C)C(=O)OCOP1(=O)OC[C@H]2O[C@@H](n3cnc4c(N)ncnc43)CC2OP(=O)(OCOC(=O)C(C)(C)C)OC[C@H]2C[C@@H](n3cnc4c(N)ncnc43)C(F)C2O1` (stereo partly drawn) [Compound 139a, (((2R,3aS,7aR,9R,10S,10aR,14aR)-2,9-bis(6-amino-9H-purin-9-yl)-10-fluoro-5,12-dioxidodecahydro-2H-cyclopenta[d]furo[3,2-j][1,3,7,9]tetraoxa[2,8]di-phosphacyclododecine-5,12-diyl)bis(oxy))bis(methylene) bis(2,2-dimethylpropanoate)], the EC50 in experiment [1] (setting [3]) came out at 0.1 µM; in experiment [1] (setting [4]), 0.1 µM; at WT STING, 0.003 µM.

As for `CC(C)(C)C(=O)OCOP1(=O)OC[C@H]2O[C@@H](n3cnc4c(N)ncnc43)CC2OP(=O)(OCOC(=O)C(C)(C)C)OC[C@H]2C[C@@H](n3cnc4c(N)ncnc43)C(F)C2O1` (stereo partly drawn) [Compound 139b, (((2R,3aS,7aR,9R,10S,10aR,14aR)-2,9-bis(6-amino-9H-purin-9-yl)-10-fluoro-5,12-dioxidodecahydro-2H-cyclopenta[d]furo[3,2-j][1,3,7,9]tetraoxa[2,8]di-phosphacyclododecine-5,12-diyl)bis(oxy))bis(methylene) bis(2,2-dimethylpropanoate)], the EC50 in experiment [1] (setting [5]) is 0.3 µM; in experiment [1] (setting [6]), 0.1 µM; in experiment [1] (setting [7]), 0.1 µM; on WT STING, 0.001 µM.

As to “(((2R,3R,3aR,7aR,9R,10S,10aR,14aR)-2,9-bis(6-amino-9H-purin-9-yl)-3,10-difluoro-12-hydroxy-5,12-dioxidodecahydro-2H-cyclopenta[d]furo[3,2-j][1,3,7,9]tetraoxa[2,8]diphosphacyclododecin-5-yl)oxy)methyl pivalate [Compound 135a]”, on WT STING, the EC50 turned out to be 0.3 µM.

Values taken from patent US11766447B2, “3′3′-cyclic dinucleotide analogue comprising a cyclopentanyl modified nucleotide as sting modulator” (INSTITUTE OF ORGANIC CHEMISTRY AND BIOCHEMISTRY ASCR, V.V.I., priority 2019, dated 2023).
